Molecular target: Growth hormone secretagogue receptor type 1 (Homo sapiens) (UniProt Q92847)
Assay: Displacement of [125I-His9]-ghrelin from human GRLN receptor by radioligand binding assay

Growth hormone secretagogue receptor type 1 (Homo sapiens), sequence (Q92847 whole entry, looked up): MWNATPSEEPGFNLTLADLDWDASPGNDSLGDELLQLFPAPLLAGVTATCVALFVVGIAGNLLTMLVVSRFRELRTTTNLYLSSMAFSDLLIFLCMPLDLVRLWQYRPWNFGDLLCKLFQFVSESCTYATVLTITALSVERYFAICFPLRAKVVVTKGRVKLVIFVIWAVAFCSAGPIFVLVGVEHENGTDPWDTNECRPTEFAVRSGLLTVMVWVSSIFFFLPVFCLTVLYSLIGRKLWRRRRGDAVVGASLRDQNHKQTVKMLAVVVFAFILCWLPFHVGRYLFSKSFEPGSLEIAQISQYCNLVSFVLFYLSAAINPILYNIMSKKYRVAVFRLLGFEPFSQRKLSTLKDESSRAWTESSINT

| Structure (SMILES) | Ki |
| --- | --- |
| CN1CC(=O)N[C@H](Cc2ccccc2)C(=O)NCCCc2ccccc2OCCN[C@@H](CO)C1=O | > 10 µM |
| CCC[C@@H]1NCCOc2ccccc2CCCNC(=O)[C@@H](CO)NC(=O)CN(C)C1=O | > 10 µM |
| CCC[C@@H]1NCCOc2ccccc2CCCNC(=O)[C@@H](CCC(=O)O)NC(=O)CN(C)C1=O | > 10 µM |

Next, values leading:

| Ki | Structure (SMILES) |
| --- | --- |
| > 10 µM | CCC[C@@H]1NCCOc2ccccc2CCCNC(=O)[C@@H](CCCN)NC(=O)CN(C)C1=O |
| > 10 µM | CC[C@H](C)[C@@H]1NCCCCCCCNC(=O)[C@@H](Cc2ccccc2)NC(=O)[C@@H](C)N(C)C1=O |
| > 10 µM | CN1CC(=O)N[C@H](Cc2ccccc2)C(=O)NCCCc2ccccc2OCCN[C@@H](CCC(=O)O)C1=O |

From BindingDB's records for doi:10.1021/jm2007062 (Tranzyme Pharma, 2011)
